Measurements from patent US20180305334A1, “COMPOUNDS, COMPOSITIONS AND METHODS OF USE AGAINST STRESS GRANULES” (Aquinnah Pharmaceuticals, Inc., priority 2015, published 2018).

What was measured:
Format in all cases: cell-based
[1] = tested on: TDP-43 inclusions in PC12 cells stably expressing wild type (WT) TDP-43-GFP; test: Dose response assay for TDP-43 inhibition; conditions: Rattus norvegicus, PC-12, inhibition of TDP-43 inclusions, stressed with 15 μM, 12-point dose response
Protocol: Exemplary compounds of the invention were evaluated for efficacy in inhibiting TDP-43 inclusions using a dose response assay. Briefly, PC12 cells stably expressing wild type (WT) TDP-43-GFP were stressed with 15 μM to induce TDP-43 inclusions. The cells were then treated with exemplary compounds of the invention and the inhibitory effect on TDP-43 inclusions was observed using fluorescent microscopy. The ratio of cells with TDP-43 inclusions was calculated based on the total number of cells with detectable GFP expression. A 12-point dose response curve was generated, and the IC50 for each compound tested was determined.

[2] = tested on: Embryonic mouse hippocampal neurons transduced with AAV1 EGFP, WT TDP-43 EGFP, A315T TDP-43 EGFP, or Q331K TDP-43 EGFP; test: Neuroprotection assay; conditions: average rescue total dendrite length; neurons treated DIV7, 9, 11 at 10 times the IC50 value; fixed DIV12
Protocol: CMF dissection buffer: 1× Hank's balanced salt solution (Ca—/Mg, 500 mL) and 10 mM HEPES, pH 7.25-7.3 (1M stock, 5 mL)
Plating media: MEM (Earle salts+/Glutamine, 95 mL), FBS (to 2.5%, 2.5 mL), Pen/Strep (lx, 1 mL), glutamine (lx, 1 mL), and D-glucose (0.6% w/v, 0.6 g)
Feeding media: neurobasal media (96 mL), B27 supplement (2 mL), Pen/Strep (1 mL), and glutamine (1 mL).
Embryonic mouse hippocampal neurons were cultured according to Kaech, S. and Banker, G. (2006) Nat Protoc 1:2406-2415 and dissected at PO from CD1 mice. Once all the hippocampi were removed, they were placed in a 15 mL conical Falcon tube on ice and brought to a final volume of 4.5 mL with CMF dissection buffer. 0.5 mL of a 2.5% trypsin-EDTA solution was then added, and the mixture was incubated at 37° C. for 15 min. The trypsin solution was gently removed, leaving the tissue at the bottom of the Falcon tube. 5 mL CMF dissection buffer was then added, and after gentle mixing, the tissue was allowed to sediment. This procedure was repeated three times. The hippocampi were then dissociated by adding 1.8 mL platting media and repeatedly pipetting in a glass Pasteur pipette; the dissociation process was repeated 5-10 times. The cells were then passed through a 70 um cell strainer into a 50 mL conical tube to remove clumps and debris, and the neurons were plated on glass coverslips coated with poly-D-lysine/laminin. On DIV 1 neurons were transduced with AAV1 EGFP, WT TDP-43 EGFP, A315T TDP-43 EGFP, or Q331K TDP-43 EGFP. […] Neurons were traced and analyzed using NeuronJ.
Results of the neuroprotection assay for exemplary compounds of the invention are summarized in Table 2, wherein A represents an average rescue total dendrite length of >150%; B represents an average rescue total dendrite length of 100-149%; C represents an average rescue total dendrite length of 50-99%; D represents an average rescue total dendrite length of 0-49%; E represents an average rescue total dendrite length of <0%; and ND signifies that the average rescue total dendrite length was not determined.

[3] = tested on: TDP-43 aggregation in PC12 cells stably expressing TDP-43^Q331K::eGFP; test: In vitro efficacy assay, TDP-43 aggregation concentration-response; conditions: Rattus norvegicus, PC-12, inhibition of TDP-43 aggregation; PC12 TDP-43^Q331K::eGFP, 1 hour pre-treatment, 15 μM sodium arsenite for 23 hours; 10-point dose response
How it was run: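 PC12 cells stably expressing TDP-43^Q331K::eGFP pre-treated with compound for 1 h, then stressed with 15 μM sodium arsenite for 23 h. Fluorescence microscopy scored the fraction of GFP-positive cells carrying TDP-43 aggregates across compound concentrations.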

Compound: COc1cc(NC(=O)CCC2CCCN(Cc3ccc(F)c(OC)c3)C2)cc(OC)c1 (stereo not shown) [Compound 100, N-(3,5-dimethoxyphenyl)-3-(1-(4-fluoro-3-methoxybenzyl)-piperidin-3-yl)propanamide]
- IC50 [1]: 101 to 250 nM
- Average Additive Dendrite Length (%) [2]: E (E represents an average rescue total dendrite length of <0%)

Compound: CCN(CC1CCCN(CCc2cccc(OC)c2)C1)C(=O)c1cc2ccccc2[nH]1 (stereo not shown) [Compound 101, N-ethyl-N-((1-(3-methoxyphenethyl)piperidin-3-yl)methyl)-1H-indole-2-carboxamide]
- IC50 [1]: 101 to 250 nM
- Average Additive Dendrite Length (%) [2]: C (C represents an average rescue total dendrite length of 50-99%)
- IC50 [3]: < 1500 nM

Compound: COc1ccccc1OCC(=O)NC1CCCN(c2nc3ccccc3s2)C1 (stereo not shown) [Compound 102, N-(1-(benzo[d]thiazol-2-yl)piperidin-3-yl)-2-(2-methoxyphenoxy)acetamide]
- IC50 [1]: 251 to 500 nM
- Average Additive Dendrite Length (%) [2]: B (B represents an average rescue total dendrite length of 100-149%)
